Source: patent publication US10584133B2, “Thienopyrimidinone compounds” (BioTheryX, Inc., priority 2018, dated 2020)

What was measured:
[1] = target: T1, PDE6D (Homo sapiens, UniProt O43924+Q96SW2); assay: PDE6 degradation assay (Western blot, MV-4-11 cells); format: cell-based; conditions: 6-8 hours
T1 construct: Whole cell extracts were prepared using RIPA buffer; endogenous in cells; host or cells: MV-4-11
Procedure: (§1) MV-4-11 cells were grown in RPMI 1640 media supplemented with 10% fetal bovine serum, streptomycin and penicillin.
(§2) Cells were cultured at approximately 10^6 cells per mL and incubated in DMSO or the indicated compounds for 6-8 hours. Whole cell extracts were prepared using RIPA buffer according to manufacturer's protocol (Pierce). Briefly, 3×10^6 cells were washed once in PBS, the cell pellets were resuspended in RIPA buffer and allowed to incubate for 15 minutes on ice. Cells debris was removed by centrifugation and the cleared whole cell lysates were transferred to new tubes for further analysis.
(§3) For Western blot analysis, whole cell protein extracts were separated on 4-12% SDS-polyacrylamide gels, transferred to nitrocellulose and probed with the indicated primary antibodies. Membranes were subsequently washed and probed with the appropriate IRDye secondary antibodies (LI-COR). The signal was detected using the Odyssey Imaging System (LI-COR).
(§4) The following antibodies were used in these studies: Anti-eRF3/GSPT1: Abcam, ab126090 (Cambridge, Mass.); Anti-Ikaros: Abcam, ab191394 (Cambridge, Mass.); Anti-CK1α: Abcam, ab108296 (Cambridge, Mass.); Anti-PDE6D: Santa Cruz Biotechnology, sc-166854 (Dallas, Tex.); β-actin (8H10D10) mouse monoclonal antibody: Cell Signaling Technology, #3700 (Danvers, Mass.); IRDye 680RD Goat anti-rabbit antibody: LI-COR, 926-68071 (Lincoln, Nebr.); IRDye 800CW Goat anti-mouse antibody: LI-COR, 926-32210 (Lincoln, Nebr.).

[2] = target: T2, IKAROS (Homo sapiens, UniProt Q13422+Q96SW2); assay: IKAROS degradation assay (Western blot, MV-4-11 cells); format: cell-based; conditions: 6-8 hours
T2 construct: endogenous in cells; host or cells: MV-4-11
T2 sequence (Q13422 whole entry): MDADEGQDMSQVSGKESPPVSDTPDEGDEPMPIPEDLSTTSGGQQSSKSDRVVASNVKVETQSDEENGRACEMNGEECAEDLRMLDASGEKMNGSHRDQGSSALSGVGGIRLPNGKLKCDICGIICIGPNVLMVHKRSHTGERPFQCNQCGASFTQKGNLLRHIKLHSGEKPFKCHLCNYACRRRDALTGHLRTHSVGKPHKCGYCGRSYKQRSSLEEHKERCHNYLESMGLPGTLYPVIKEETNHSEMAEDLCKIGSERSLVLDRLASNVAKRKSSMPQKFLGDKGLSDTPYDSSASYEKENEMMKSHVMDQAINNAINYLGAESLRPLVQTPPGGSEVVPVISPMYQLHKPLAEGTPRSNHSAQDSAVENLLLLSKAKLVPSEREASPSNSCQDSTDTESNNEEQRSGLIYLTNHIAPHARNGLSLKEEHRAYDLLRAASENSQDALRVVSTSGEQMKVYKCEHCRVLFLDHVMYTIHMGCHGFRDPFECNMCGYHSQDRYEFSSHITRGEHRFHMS
T2 sequence (Q96SW2 whole entry): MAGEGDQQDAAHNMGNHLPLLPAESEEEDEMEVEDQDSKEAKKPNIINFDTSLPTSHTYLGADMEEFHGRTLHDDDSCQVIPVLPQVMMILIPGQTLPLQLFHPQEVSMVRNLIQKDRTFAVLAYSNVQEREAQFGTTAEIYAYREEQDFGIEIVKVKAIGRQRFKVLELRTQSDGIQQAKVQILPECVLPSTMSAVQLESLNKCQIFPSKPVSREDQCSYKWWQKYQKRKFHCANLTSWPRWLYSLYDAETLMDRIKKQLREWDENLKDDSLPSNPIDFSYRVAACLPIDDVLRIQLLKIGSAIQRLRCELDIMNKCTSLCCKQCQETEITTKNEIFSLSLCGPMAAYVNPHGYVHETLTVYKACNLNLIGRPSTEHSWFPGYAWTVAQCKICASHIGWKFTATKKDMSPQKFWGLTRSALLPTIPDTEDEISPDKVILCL
T2 sequence (Q16531 whole entry partner): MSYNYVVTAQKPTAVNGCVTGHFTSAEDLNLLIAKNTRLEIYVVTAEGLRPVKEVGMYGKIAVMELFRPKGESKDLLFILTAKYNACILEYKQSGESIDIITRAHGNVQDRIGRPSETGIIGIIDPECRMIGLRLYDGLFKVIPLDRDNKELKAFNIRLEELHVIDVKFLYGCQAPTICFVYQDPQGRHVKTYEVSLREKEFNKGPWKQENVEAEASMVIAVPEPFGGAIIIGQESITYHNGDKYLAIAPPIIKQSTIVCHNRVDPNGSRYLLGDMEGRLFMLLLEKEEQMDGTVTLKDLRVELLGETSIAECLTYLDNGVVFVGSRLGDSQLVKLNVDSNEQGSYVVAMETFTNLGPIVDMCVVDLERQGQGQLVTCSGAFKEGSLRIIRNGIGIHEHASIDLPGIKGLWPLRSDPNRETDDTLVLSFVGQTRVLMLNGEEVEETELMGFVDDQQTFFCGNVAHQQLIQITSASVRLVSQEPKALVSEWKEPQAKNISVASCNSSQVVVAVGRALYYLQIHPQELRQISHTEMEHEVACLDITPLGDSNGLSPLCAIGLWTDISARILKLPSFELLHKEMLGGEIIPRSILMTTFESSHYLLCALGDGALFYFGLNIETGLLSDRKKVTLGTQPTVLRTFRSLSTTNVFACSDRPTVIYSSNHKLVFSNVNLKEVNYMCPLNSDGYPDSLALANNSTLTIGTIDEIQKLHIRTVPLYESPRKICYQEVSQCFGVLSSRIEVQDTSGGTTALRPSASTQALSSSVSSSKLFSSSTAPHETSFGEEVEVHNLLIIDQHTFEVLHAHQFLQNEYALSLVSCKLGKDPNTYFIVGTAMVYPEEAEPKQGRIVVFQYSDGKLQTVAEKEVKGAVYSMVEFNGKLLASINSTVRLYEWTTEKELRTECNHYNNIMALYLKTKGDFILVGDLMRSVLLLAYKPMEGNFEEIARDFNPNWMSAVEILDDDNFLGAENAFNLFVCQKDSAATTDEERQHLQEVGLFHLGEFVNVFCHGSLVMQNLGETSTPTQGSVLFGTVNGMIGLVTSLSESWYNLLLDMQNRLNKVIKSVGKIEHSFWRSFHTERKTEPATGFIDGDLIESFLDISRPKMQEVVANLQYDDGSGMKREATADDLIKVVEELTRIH
Procedure: as §1, §2, §3, §4

[3] = target: T3, Helios (Homo sapiens, UniProt Q96SW2+Q9UKS7); assay: Helios assay (Western blot degradation, MV-4-11 cells); format: cell-based; conditions: 6-8 hours
T3 construct: Whole cell extracts were prepared using RIPA buffer; endogenous in cells; host or cells: MV-4-11
T3 sequence (Q9UKS7 whole entry): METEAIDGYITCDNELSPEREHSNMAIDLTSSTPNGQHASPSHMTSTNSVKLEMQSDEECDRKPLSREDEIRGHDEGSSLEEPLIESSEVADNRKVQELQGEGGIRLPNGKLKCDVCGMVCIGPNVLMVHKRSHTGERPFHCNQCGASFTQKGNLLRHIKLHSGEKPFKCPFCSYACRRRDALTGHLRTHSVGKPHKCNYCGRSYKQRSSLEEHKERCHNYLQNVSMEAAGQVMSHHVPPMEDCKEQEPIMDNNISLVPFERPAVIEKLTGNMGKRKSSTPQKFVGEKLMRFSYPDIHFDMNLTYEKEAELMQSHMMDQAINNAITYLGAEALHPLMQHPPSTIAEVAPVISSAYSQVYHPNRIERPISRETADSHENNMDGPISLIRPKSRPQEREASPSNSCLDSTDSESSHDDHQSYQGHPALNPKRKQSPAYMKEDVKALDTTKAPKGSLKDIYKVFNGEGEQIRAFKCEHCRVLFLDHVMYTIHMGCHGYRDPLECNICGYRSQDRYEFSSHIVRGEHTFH
T3 sequence (Q96SW2 whole entry): as the sequence (Q96SW2 whole entry) above
T3 sequence (Q16531 whole entry partner): as the sequence (Q16531 whole entry partner) above
Procedure: as §1, §2, §3, §4

[4] = tested on: MV-4-11 cells; assay: MV-4-11 cell viability assay (CellTiter-Glo); format: cell-based; conditions: 3 days
Procedure: MV-4-11 cells were cultured in RPMI 1640 media supplemented with 10% fetal bovine serum, streptomycin and penicillin, and were plated in white walled 96-well plates at 2500 cells/well. Cells were incubated in DMSO (control) or the indicated compounds for 3 days at 37° C. and 5% CO2. Following the incubation period, 100 μL of CellTiterGlow (CTG) reagent (CellTiter-Glo® Luminescent Cell Viability Assay, Promega (Madison, Wis.)) was added to each well. Following a 10 minutes incubation with shaking, luminescence was measured using the EnVision Multimode plate reader.

[5] = tested on: GSPT1; assay: GSPT1 degradation assay (Western blot, MV-4-11 cells); format: cell-based; conditions: 6-8 hours
Procedure: as §1, §2, §3, §4

[6] = target: T4, CK1α (Homo sapiens, UniProt P48729+Q96SW2); assay: CK1α degradation assay (Western blot, MV-4-11 cells); format: cell-based; conditions: 6-8 hours
T4 construct: Whole cell extracts were prepared using RIPA buffer; endogenous in cells; host or cells: MV-4-11
T4 sequence (P48729 whole entry): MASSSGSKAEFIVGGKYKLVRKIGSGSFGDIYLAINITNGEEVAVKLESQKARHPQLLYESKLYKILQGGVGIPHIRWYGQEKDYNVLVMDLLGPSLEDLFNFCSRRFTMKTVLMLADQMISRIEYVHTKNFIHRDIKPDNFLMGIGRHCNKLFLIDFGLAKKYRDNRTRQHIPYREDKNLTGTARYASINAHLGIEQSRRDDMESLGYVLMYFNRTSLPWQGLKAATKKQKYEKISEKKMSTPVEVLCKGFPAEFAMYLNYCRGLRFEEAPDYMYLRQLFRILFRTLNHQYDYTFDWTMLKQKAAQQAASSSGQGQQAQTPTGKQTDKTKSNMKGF
T4 sequence (Q96SW2 whole entry): as the sequence (Q96SW2 whole entry) above
T4 sequence (Q16531 whole entry partner): as the sequence (Q16531 whole entry partner) above
Procedure: as §1, §2, §3, §4

[7] = tested on: IL-1β; assay: IL-1β in LPS-induced PBMCs / CD14+ monocytes (Meso Scale); format: cell-based; conditions: LPS 100 ng/mL, 18-24 h
Procedure: (§5) Either frozen primary blood mononuclear cells (PBMCs) or frozen CD14+ mobilized peripheral blood monocytes were purchased from AllCells (PB003F, Normal Peripheral Blood MNC (Alameda, Calif.)). Cells were quick thawed, washed 1-time with RPMI-1640 (10% FBS/1% Pen-Strep) and plated in 96 well plates at 200,000 cells per well. Cells were pretreated with DMSO only or Compound 12 for 1 h and then induced with 100 ng/mL lipopolysaccharide (LPS) for 18-24 h. The supernatant was analyzed for IL-1β, IL-6, and TNFα, using Meso Scale assay according to manufacturer's protocol. The negative control wells were treated with DMSO.

[8] = tested on: IL-6; assay: IL-6 in LPS-induced PBMCs / CD14+ monocytes (Meso Scale); format: cell-based; conditions: LPS 100 ng/mL, 18-24 h
Procedure: as §5

[9] = tested on: TNFα; assay: TNFα in LPS-induced PBMCs / CD14+ monocytes (Meso Scale); format: cell-based; conditions: LPS 100 ng/mL, 18-24 h
Procedure: as §5

[10] = tested on: IL-2; assay: IL-2 in anti-CD3 stimulated PBMCs (Mesoscale); format: cell-based, human; conditions: fold difference from DMSO control, 24 h
Procedure: For the IL-2 analysis, 96 well plates were precoated with 1 μg/mL anti-human CD3 antibody (OKT3, eBioscience Inc., San Diego, Calif.). After washing with PBS, Compound 12 was added (50 μL/well) followed by PBMCs diluted at 3-4 million cells/mL (150 μL/well). Plates were incubated for 24 h and the supernatants collected for Mesoscale IL-2 analysis. IL-2 activity is measured as fold difference from the DMSO control.

T1 sequence (O43924 whole entry): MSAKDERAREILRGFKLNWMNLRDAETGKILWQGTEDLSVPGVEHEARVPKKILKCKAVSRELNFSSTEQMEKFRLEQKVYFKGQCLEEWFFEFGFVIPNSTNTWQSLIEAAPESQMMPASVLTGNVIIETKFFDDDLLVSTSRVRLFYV
T1 sequence (Q96SW2 whole entry): as the sequence (Q96SW2 whole entry) above
T1 sequence (Q16531 whole entry partner): as the sequence (Q16531 whole entry partner) above

Row | SMILES | PDE6D % Degradation at 15 μM [1] [%] | PDE6D % Degradation at 30 μM [1] [%] | IKAROS % Degradation at 15 μM [2] [%] | IKAROS % Degradation at 30 μM [2] [%] | MV-4-11 Cell Viability % DMSO at 15 μM [4] [% DMSO] | MV-4-11 Cell Viability % DMSO at 30 μM [4] [% DMSO] | CK1α % Degradation at 15 μM [6] [%] | CK1α % Degradation at 30 μM [6] [%] | further results
1 | Cc1nc2scc(Br)c2c(=O)n1C1CCC(=O)NC1=O (stereo not drawn) [Compound 5, 3-(5-bromo-2-methyl-4-oxothieno[2,3-d]pyrimidin-3(4H)-yl)piperidine-2,6-dione] | 0 | 15 | – | – | – | – | – | – | –
2 | Cc1nc2scc(N)c2c(=O)n1C1CCC(=O)NC1=O (stereo not drawn) [Compound 10, 3-(5-amino-2-methyl-4-oxothieno[2,3-d]pyrimidin-3(4H)-yl)piperidine-2,6-dione] | – | – | 49 | 53 | – | – | – | – | Helios % Degradation at 15 μM [3]: 0%; Helios % Degradation at 30 μM [3]: 16%
3 | Cc1nc2cc(Br)sc2c(=O)n1C1CCC(=O)NC1=O (stereo not drawn) [Compound 4, 3-(6-bromo-2-methyl-4-oxothieno[3,2-d]pyrimidin-3(4H)-yl)piperidine-2,6-dione] | 49 | 75 | – | – | 100 | 97 | – | – | –
4 | Cc1nc2ccsc2c(=O)n1C1CCC(=O)NC1=O (stereo not drawn) [Compound 1, 3-(2-methyl-4-oxothieno[3,2-d]pyrimidin-3(4H)-yl)piperidine-2,6-dione] | – | – | – | – | – | – | – | – | GSPT1 % Degradation at 15 μM [5]: 23%; GSPT1 % Degradation at 30 μM [5]: 0%
5 | Cc1ccc(NC(=O)NCc2cc3nc(C)n(C4CCC(=O)NC4=O)c(=O)c3s2)cc1Cl (stereo not drawn) [Compound 13, 1-(3-chloro-4-methylphenyl)-3-((3-(2,6-dioxopiperidin-3-yl)-2-methyl-4-oxo-3,4-dihydrothieno[3,2-d]pyrimidin-6-yl)methyl)urea] | 4 | 9 | 65 | 55 | 2 | 0.73 | 31 | 35 | GSPT1 % Degradation at 15 μM [5]: 87%; GSPT1 % Degradation at 30 μM [5]: 87%; Helios % Degradation at 15 μM [3]: 50%; Helios % Degradation at 30 μM [3]: 21%
6 | Cc1nc2c(CN)scc2c(=O)n1C1CCC(=O)NC1=O.O=C(O)C(F)(F)F (stereo not drawn) [Compound 11, 3-(7-(aminomethyl)-2-methyl-4-oxothieno[3,4-d]pyrimidin-3(4H)-yl)piperidine-2,6-dione 2,2,2-trifluoroacetate] | 30 | 41 | – | – | 94 | 78 | 17 | 0 | –
7 | Cc1nc2c(N)csc2c(=O)n1C1CCC(=O)NC1=O (stereo not drawn) [Compound 9, 3-(7-amino-2-methyl-4-oxothieno[3,2-d]pyrimidin-3(4H)-yl)piperidine-2,6-dione] | – | – | – | – | – | – | 24 | 12 | –
8 | Cc1sc2nc(C)n(C3CCC(=O)NC3=O)c(=O)c2c1N (stereo not drawn) [Compound 7, 3-(5-amino-2,6-dimethyl-4-oxothieno[2,3-d]pyrimidin-3(4H)-yl)piperidine-2,6-dione] | – | – | – | – | 97 | 96 | – | – | –
9 | Cc1nc2cscc2c(=O)n1C1CCC(=O)NC1=O (stereo not drawn) [Compound 2, 3-(2-methyl-4-oxothieno[3,4-d]pyrimidin-3(4H)-yl)piperidine-2,6-dione] | 0 | 24 | 0 | 7 | – | – | – | – | –
10 | Cc1cc2c(=O)n(C3CCC(=O)NC3=O)c(C)nc2s1 (stereo not drawn) [Compound 6, 3-(2,6-dimethyl-4-oxothieno[2,3-d]pyrimidin-3(4H)-yl)piperidine-2,6-dione] | – | – | – | – | 89 | 91 | – | – | –
11 | Cc1nc2sccc2c(=O)n1C1CCC(=O)NC1=O (stereo not drawn) [Compound 3, 3-(2-methyl-4-oxothieno[2,3-d]pyrimidin-3(4H)-yl)piperidine-2,6-dione] | 0 | 10 | – | – | 97 | 94 | – | – | –
12 | Cc1ccc(NC(=O)NCc2scc3c(=O)n(C4CCC(=O)NC4=O)c(C)nc23)cc1Cl (stereo not drawn) [Compound 12, 1-(3-chloro-4-methylphenyl)-3-((3-(2,6-dioxopiperidin-3-yl)-2-methyl-4-oxo-3,4-dihydrothieno[3,4-d]pyrimidin-7-yl)methyl)urea] | 0 | 21 | 28 | 60 | 0 | 0 | 16 | 45 | GSPT1 % Degradation at 15 μM [5]: 96%; GSPT1 % Degradation at 30 μM [5]: 97%; Helios % Degradation at 15 μM [3]: 49%; Helios % Degradation at 30 μM [3]: 69%; inhibition at 1 µM ([7]; 1 μM): 80%; inhibition at 10 µM ([7]; 10 μM): 92%; inhibition at 1 µM ([8]; 1 μM): 17%; inhibition at 10 µM ([8]; 10 μM): 53%; inhibition at 1 µM ([9]; 1 μM): 79%; inhibition at 10 µM ([9]; 10 μM): 91%; IL-2 Fold Change ([10]; 1 μM): 3.6 Fold Change; IL-2 Fold Change ([10]; 10 μM): 3.1 Fold Change
13 | Cc1nc2sc(Br)cc2c(=O)n1C1CCC(=O)NC1=O (stereo not drawn) [Compound 8, 3-(6-bromo-2-methyl-4-oxothieno[2,3-d]pyrimidin-3(4H)-yl)piperidine-2,6-dione] | – | – | – | – | – | – | 8 | 0 | –
